Results as given in patent US20260206755A1, “COMPOUNDS AND COMPOSITIONS HAVING KNOCK-DOWN OR BLOOD FEED INHIBITION ACTIVITY AGAINST INSECT PESTS” (priority 2017, published 2026).
Like-named read-outs stand apart in the source and are kept apart here.

Test system: Anopheles stephensi
Assay: Anopheles stephensi treated well plate contact test: knockdown and mortality
Assay type: in vivo
Details: for mortality at 0.2 ppm / pest or weed control at 0.2 ppm / mortality at 2 ppm / pest or weed control at 2 ppm / mortality at 20 ppm / pest or weed control at 20 ppm / mortality at 200 ppm / pest or weed control at 200 ppm: Anopheles stephensi; for mortality at 0.2 ppm / pest or weed control at 0.2 ppm / mortality at 2 ppm / pest or weed control at 2 ppm / mortality at 20 ppm / pest or weed control at 20 ppm / mortality at 200 ppm / pest or weed control at 200 ppm / mortality % 24, without TFNA-AM / mortality % 48, without TFNA-AM / Knock Down, without TFNA-AM: without TFNA-AM; for pest or weed control at 0.2 ppm / pest or weed control at 2 ppm / pest or weed control at 20 ppm / pest or weed control at 200 ppm / Knock Down, with TFNA-AM / Knock Down, without TFNA-AM: knockdown after 1 hour; for pest or weed control at 0.2 ppm / pest or weed control at 2 ppm / pest or weed control at 20 ppm / pest or weed control at 200 ppm: read-out: Knock Down, without TFNA-AM
Method in brief: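 Well surfaces coated with ethanol solution of compound at a defined concentration, alone or with 2 ppm TFNA-AM, then dried. Five non-blood-fed 2–5-day-old adult females per well, fed 10% sucrose; knockdown scored at 1 hour, mortality at 24 and 48 hours, replicate means reported.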

[1] = test compound 0.2 ppm, after 24 hours, read-out: mortality % 24, without TFNA-AM
[2] = test compound 0.2 ppm, after 48 hours, read-out: mortality % 48, without TFNA-AM
[3] = test compound 2 ppm, after 24 hours, read-out: mortality % 24, without TFNA-AM
[4] = test compound 2 ppm, after 48 hours, read-out: mortality % 48, without TFNA-AM
[5] = test compound 20 ppm, after 24 hours, read-out: mortality % 24, without TFNA-AM
[6] = test compound 20 ppm, after 48 hours, read-out: mortality % 48, without TFNA-AM
[7] = test compound 200 ppm, after 24 hours, read-out: mortality % 24, without TFNA-AM
[8] = test compound 200 ppm, after 48 hours, read-out: mortality % 48, without TFNA-AM
[9] = test compound 200 ppm, adult females
[10] = test compound 0.2 ppm plus 2 ppm TFNA-AM, after 24 hours
[11] = test compound 0.2 ppm plus 2 ppm TFNA-AM
[12] = test compound 2 ppm plus 2 ppm TFNA-AM, after 48 hours
[13] = test compound 2 ppm plus 2 ppm TFNA-AM
[14] = test compound 20 ppm plus 2 ppm TFNA-AM, after 48 hours
[15] = test compound 20 ppm plus 2 ppm TFNA-AM
[16] = test compound 200 ppm plus 2 ppm TFNA-AM, after 24 hours
[17] = test compound 200 ppm plus 2 ppm TFNA-AM, after 48 hours
[18] = test compound 200 ppm plus 2 ppm TFNA-AM
[19] = test compound 0.2 ppm plus 2 ppm TFNA-AM, after 48 hours
[20] = test compound 2 ppm plus 2 ppm TFNA-AM, after 24 hours
[21] = test compound 20 ppm plus 2 ppm TFNA-AM, after 24 hours
[22] = test compound 0.2 ppm, after 24 hours
[23] = test compound 0.2 ppm, after 48 hours
[24] = test compound 2 ppm, after 24 hours
[25] = test compound 2 ppm, after 48 hours
[26] = test compound 20 ppm, after 24 hours
[27] = test compound 20 ppm, after 48 hours
[28] = test compound 200 ppm, after 24 hours
[29] = test compound 200 ppm, after 48 hours

Row | Compound | mortality % 24, with TFNA-AM [10] [%] | Knock Down, with TFNA-AM [11] [%] | mortality % 48, with TFNA-AM [12] [%] | Knock Down, with TFNA-AM [13] [%] | mortality % 48, with TFNA-AM [14] [%] | Knock Down, with TFNA-AM [15] [%] | mortality % 24, with TFNA-AM [16] [%] | mortality % 48, with TFNA-AM [17] [%] | Knock Down, with TFNA-AM [18] [%] | mortality % 48, with TFNA-AM [19] [%] | mortality % 24, with TFNA-AM [20] [%] | mortality % 24, with TFNA-AM [21] [%] | mortality % 24, without TFNA-AM [22] [%] | mortality % 48, without TFNA-AM [23] [%] | Knock Down, without TFNA-AM (test compound 0.2 ppm) [%] | mortality % 24, without TFNA-AM [24] [%] | mortality % 48, without TFNA-AM [25] [%] | Knock Down, without TFNA-AM (test compound 2 ppm) [%] | mortality % 24, without TFNA-AM [26] [%] | mortality % 48, without TFNA-AM [27] [%] | other results
1 | CN1COCN(Cc2cnc(Cl)s2)/C1=N\[N+](=O)[O-] [Thiamethoxam] | 20 | 100 | 100 | 100 | 100 | 100 | 100 | 100 | 100 | – | – | – | – | – | – | – | – | – | – | – | mortality at 0.2 ppm [1]: 0%; mortality at 0.2 ppm [2]: 0%; pest or weed control at 0.2 ppm (test compound 0.2 ppm): 0%; mortality at 2 ppm [3]: 40%; mortality at 2 ppm [4]: 40%; pest or weed control at 2 ppm (test compound 2 ppm): 0%; mortality at 20 ppm [5]: 60%; mortality at 20 ppm [6]: 40%; pest or weed control at 20 ppm (test compound 20 ppm): 0%; mortality at 200 ppm [7]: 80%; mortality at 200 ppm [8]: 80%; pest or weed control at 200 ppm [9]: 0%
2 | CON=C(C(=O)OC)c1ccccc1CON=C(C)c1cccc(C(F)(F)F)c1 [Trifloxystrobin] | 0 | 100 | 70 | 100 | 100 | 100 | 100 | 100 | 100 | 0 | 60 | 100 | – | – | – | – | – | – | – | – | mortality at 0.2 ppm [1]: 0%; mortality at 0.2 ppm [2]: 0%; pest or weed control at 0.2 ppm (test compound 0.2 ppm): 0%; mortality at 2 ppm [3]: 0%; mortality at 2 ppm [4]: 0%; pest or weed control at 2 ppm (test compound 2 ppm): 50%; mortality at 20 ppm [5]: 0%; mortality at 20 ppm [6]: 0%; pest or weed control at 20 ppm (test compound 20 ppm): 70%; mortality at 200 ppm [7]: 0%; mortality at 200 ppm [8]: 0%; pest or weed control at 200 ppm [9]: 80%
3 | O=c1c(-c2cccc(C(F)(F)F)c2)c([O-])[n+](Cc2cncnc2)c2ccccn12 [Triflumizopyrim] | 0 | 100 | 50 | 100 | 100 | 100 | 100 | 100 | 100 | 0 | 50 | 90 | 0 | 0 | 0 | 0 | 0 | 0 | 0 | 10 | Knock Down, without TFNA-AM (test compound 20 ppm): 0%; mortality % 24, without TFNA-AM [28]: 40%; mortality % 48, without TFNA-AM [29]: 40%; Knock Down, without TFNA-AM [9]: 0%
4 | Abamectin | 20 | 100 | 53 | 100 | 100 | 100 | 100 | 100 | 100 | 27 | 47 | 93 | 13 | 20 | 0 | 13 | 33 | 0 | 53 | 87 | Knock Down, without TFNA-AM (test compound 20 ppm): 7%; mortality % 24, without TFNA-AM [28]: 100%; mortality % 48, without TFNA-AM [29]: 100%; Knock Down, without TFNA-AM [9]: 47%
5 | Emamectin benzoate | 30 | 100 | 60 | 100 | 100 | 100 | 100 | 100 | 100 | 20 | 60 | 100 | 0 | 0 | 0 | 0 | 10 | 0 | 40 | 90 | Knock Down, without TFNA-AM (test compound 20 ppm): 0%; mortality % 24, without TFNA-AM [28]: 40%; mortality % 48, without TFNA-AM [29]: 90%; Knock Down, without TFNA-AM [9]: 0%
6 | Spinosad | 80 | 100 | 100 | 100 | 80 | 100 | 100 | 100 | 100 | 100 | 100 | 100 | 0 | 0 | 40 | 0 | 0 | 40 | 0 | 0 | Knock Down, without TFNA-AM (test compound 20 ppm): 40%; mortality % 24, without TFNA-AM [28]: 40%; mortality % 48, without TFNA-AM [29]: 40%; Knock Down, without TFNA-AM [9]: 60%
